Reference: ChEMBL document CHEMBL2417405, “Synthesis, enzyme kinetics and computational evaluation of N-(β-D-glucopyranosyl) oxadiazolecarboxamides as glycogen phosphorylase inhibitors” (Bioorg Med Chem, 2013)
Activity calls are given as the source filed them. The rule behind the calls is not given here.

Each compound was assayed against T1, Glycogen phosphorylase, muscle form (Oryctolagus cuniculus) (UniProt P00489) (assay: Inhibition of rabbit skeletal muscle glycogen phosphorylase bat 625 uM by Lineweaver-Burk plot method).
T1 sequence (whole entry): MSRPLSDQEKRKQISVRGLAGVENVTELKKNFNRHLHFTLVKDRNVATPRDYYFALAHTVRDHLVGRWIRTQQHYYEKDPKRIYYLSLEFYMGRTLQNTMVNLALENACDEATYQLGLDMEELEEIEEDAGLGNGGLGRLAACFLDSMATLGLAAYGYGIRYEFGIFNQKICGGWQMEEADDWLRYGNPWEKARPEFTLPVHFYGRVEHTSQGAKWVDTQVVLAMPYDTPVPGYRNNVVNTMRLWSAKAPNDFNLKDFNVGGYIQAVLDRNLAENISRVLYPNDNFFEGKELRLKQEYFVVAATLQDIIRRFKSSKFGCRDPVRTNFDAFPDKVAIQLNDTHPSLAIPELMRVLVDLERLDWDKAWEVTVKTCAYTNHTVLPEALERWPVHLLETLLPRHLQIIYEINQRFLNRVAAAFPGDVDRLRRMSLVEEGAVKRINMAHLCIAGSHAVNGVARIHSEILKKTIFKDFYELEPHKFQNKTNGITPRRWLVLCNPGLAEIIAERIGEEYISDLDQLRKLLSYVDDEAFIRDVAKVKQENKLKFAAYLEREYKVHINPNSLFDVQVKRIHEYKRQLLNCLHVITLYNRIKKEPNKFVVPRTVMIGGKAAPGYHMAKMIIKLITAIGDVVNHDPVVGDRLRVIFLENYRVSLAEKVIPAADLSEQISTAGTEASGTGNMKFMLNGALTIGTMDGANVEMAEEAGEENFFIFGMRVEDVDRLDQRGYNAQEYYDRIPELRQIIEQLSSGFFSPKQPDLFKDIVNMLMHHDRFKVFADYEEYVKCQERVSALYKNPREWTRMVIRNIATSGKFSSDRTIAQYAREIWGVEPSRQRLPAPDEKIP

Row | inhibition | Compound
1 | inactive | O=C(N[C@@H]1O[C@H](CO)[C@@H](O)[C@H](O)[C@H]1O)c1noc(-c2ccc3ccccc3c2)n1
2 | inactive | O=C(N[C@@H]1O[C@H](CO)[C@@H](O)[C@H](O)[C@H]1O)c1cn(-c2ccc3ccccc3c2)nn1
3 | inactive | O=C(N[C@@H]1O[C@H](CO)[C@@H](O)[C@H](O)[C@H]1O)c1nc(-c2ccc3ccccc3c2)no1
4 | inactive | O=C(N[C@@H]1O[C@H](CO)[C@@H](O)[C@H](O)[C@H]1O)c1cc(-c2ccc3ccccc3c2)no1

The compounds below were run against T2, Glycogen phosphorylase, muscle form (Oryctolagus cuniculus, UniProt P00489).
T2 sequence (P00489 whole entry): T1 sequence (whole entry)
Description: Inhibition of rabbit skeletal muscle glycogen phosphorylase b by Lineweaver-Burk plot method

Row | Compound | Ki
5 | O=C(N[C@@H]1O[C@H](CO)[C@@H](O)[C@H](O)[C@H]1O)c1cc(-c2ccccc2)no1 | 172 µM
6 | O=C(N[C@@H]1O[C@H](CO)[C@@H](O)[C@H](O)[C@H]1O)c1nnc(-c2cccc3ccccc23)o1 | 172 µM
7 | O=C(N[C@@H]1O[C@H](CO)[C@@H](O)[C@H](O)[C@H]1O)c1nc(-c2cccc3ccccc23)no1 | 145 µM
8 | O=C(N[C@@H]1O[C@H](CO)[C@@H](O)[C@H](O)[C@H]1O)c1nc(-c2ccccc2)no1 | 104 µM
9 | O=C(N[C@@H]1O[C@H](CO)[C@@H](O)[C@H](O)[C@H]1O)c1nnc(-c2ccccc2)o1 | 545 µM
10 | O=C(N[C@@H]1O[C@H](CO)[C@@H](O)[C@H](O)[C@H]1O)c1cn(-c2ccccc2)nn1 | 75 µM
11 | O=C(N[C@@H]1O[C@H](CO)[C@@H](O)[C@H](O)[C@H]1O)c1nnc(-c2ccc3ccccc3c2)o1 | 30 µM
12 | O=C(N[C@@H]1O[C@H](CO)[C@@H](O)[C@H](O)[C@H]1O)c1noc(-c2ccccc2)n1 | 136 µM
13 | O=C(N[C@@H]1O[C@H](CO)[C@@H](O)[C@H](O)[C@H]1O)c1noc(-c2cccc3ccccc23)n1 | 33 µM
